# Read-outs that look alike come from different tables or passages of the source.
# Columns and labels:
# [1] = molecular target: BTK (Homo sapiens, UniProt Q06187); test: Degradation of BTK protein in Namalwa cells (Western blot; DC50, Dmax)
# [2] = system: Mino cells; test: Antiproliferative effect, MTS cell viability assay, Mino cells; assay type: cell-based; conditions: Mino mantle cell lymphoma cells, read-out: IC50 (anti-proliferation) Mino cells
# Method: (§1) Antiproliferative effect of the exemplary compounds was assessed in B-cell malignancy models.
# (§2) To assess the effect of the exemplary compounds on cell viability in B-cell malignancy models by degradation of BTK protein, Mino and JeKo-1 cells were treated with varying concentrations of Ibrutinib (0, 0.001, 0.01, 0.1, 1, 10 μM). Under these conditions, cell viability was determined by an MTS assay. Cytotoxicity was assayed by the determination of reduced tetrazolium (formazan) created by metabolically active cells as detected at 490 nm absorbance using a microplate reader (BMG Labtech, Cary, NC, USA).
# (§3) The exemplary compounds attenuated the viability of Mino and JeKo-1 cells in a concentration-dependent manner at 72 h post treatment. Results are shown in Table 1 for each exemplary compound.
# [3] = system: JeKo-1 cells; test: Antiproliferative effect, MTS cell viability assay, JeKo-1 cells; assay type: cell-based; conditions: JeKo-1 mantle cell lymphoma cells, read-out: IC50 (anti-proliferation) JeKO-1 cells
# Method: as §1, §2, §3
# [4] = read-out: DC50 (BTK degradation), concentration giving 50% reduction of BTK expression level, cell line not given
# [5] = BTK degradation, cell line not given
# Chain of BTK (Q06187 whole entry): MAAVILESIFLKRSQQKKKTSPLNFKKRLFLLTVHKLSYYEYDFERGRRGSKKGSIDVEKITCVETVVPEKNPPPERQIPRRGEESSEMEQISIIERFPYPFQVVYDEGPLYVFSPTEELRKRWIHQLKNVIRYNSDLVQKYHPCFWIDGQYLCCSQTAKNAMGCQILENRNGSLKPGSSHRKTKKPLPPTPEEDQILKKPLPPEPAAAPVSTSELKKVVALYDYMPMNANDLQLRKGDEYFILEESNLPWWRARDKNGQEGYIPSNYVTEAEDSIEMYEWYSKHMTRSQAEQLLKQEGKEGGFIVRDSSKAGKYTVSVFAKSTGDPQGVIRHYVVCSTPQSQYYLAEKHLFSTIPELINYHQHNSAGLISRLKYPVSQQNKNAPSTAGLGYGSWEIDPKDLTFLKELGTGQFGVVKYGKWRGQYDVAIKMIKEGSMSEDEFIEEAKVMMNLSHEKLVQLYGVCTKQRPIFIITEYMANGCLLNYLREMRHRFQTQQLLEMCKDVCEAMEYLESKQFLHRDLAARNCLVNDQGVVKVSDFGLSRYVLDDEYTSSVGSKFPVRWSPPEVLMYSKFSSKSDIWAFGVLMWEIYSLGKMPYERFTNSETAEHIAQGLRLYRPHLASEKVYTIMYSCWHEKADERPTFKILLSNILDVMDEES
SMILES,"DC50 [1, 4]",Dmax ([1]; read-out: Dmax (BTK degradation)),"IC50 ([2]; Homo sapiens, MINO)",IC50 ([3]; Homo sapiens),Dmax (BTK degradation) ([1]; cell line not given),IC50 [2],IC50 [3],"DC50 [1, 5]",Dmax [1],"degradation of BTK protein ([1]; Namalwa B lymphocyte cells, various concentrations, 24 hours, Western blot)",IC50 ([2]; Homo sapiens)
"Nc1ncnc2c1c(-c1ccc(Oc3ccccc3)cc1)nn2C1CCN(CCN2CCC(N3CCN(c4ccc5c(c4)C(=O)N(C4CCC(=O)NC4=O)C5=O)CC3)C2)CC1 (single isomer, unassigned) [Compound 459a, 5-(4-(1-(2-(4-(4-amino-3-(4-phenoxyphenyl)-1H-pyrazolo[3,4-d]pyrimidin-1-yl)piperidin-1-yl)ethyl)pyrrolidin-3-yl)piperazin-1-yl)-2-(2,6-dioxopiperidin-3-yl)isoindoline-1,3-dione]",10 to 50 nM,> 90%,< 1000 nM,< 1000 nM,–,–,–,–,–,–,–
"Nc1ncnc2c1c(-c1ccc(Oc3ccccc3)cc1)nn2C1CCN(CCN2CCC(N3CCN(c4ccc5c(c4)C(=O)N(C4CCC(=O)NC4=O)C5=O)CC3)C2)CC1 (single isomer, unassigned) [Compound 459b, 5-(4-(1-(2-(4-(4-amino-3-(4-phenoxyphenyl)-1H-pyrazolo[3,4-d]pyrimidin-1-yl)piperidin-1-yl)ethyl)pyrrolidin-3-yl)piperazin-1-yl)-2-(2,6-dioxopiperidin-3-yl)isoindoline-1,3-dione]",< 10 nM,–,–,–,A (A >90%),< 1000 nM,< 1000 nM,–,–,–,–
"Nc1ncnc2c1c(-c1ccc(Oc3ccccc3)cc1)nn2C1CCN(C2CCN(CC3CCN(c4ccc5c(c4)C(=O)N(C4CCC(=O)NC4=O)C5=O)CC3)CC2)CC1 (stereo in doubt) [Compound 213b, (S)-5-(4-((4-(4-amino-3-(4-phenoxyphenyl)-1H-pyrazolo[3,4-d]pyrimidin-1-yl)-[1,4′-bipiperidin]-1′-yl)methyl)piperidin-1-yl)-2-(2,6-dioxopiperidin-3-yl)isoindoline-1,3-dione]",–,–,–,–,–,< 1000 nM,< 1000 nM,< 10 nM,–,–,–
"Nc1ncnc2c1c(-c1ccc(Oc3ccccc3)cc1)nn2[C@@H]1CCCN(C2CCN(C(=O)N3CCC(CCCC4CCN(c5ccc6c(c5)C(=O)N(C5CCC(=O)NC5=O)C6=O)CC4)CC3)CC2)C1 (stereo partly drawn) [Compound 195, 5-(4-(3-(1-((R)-3-(4-amino-3-(4-phenoxyphenyl)-1H-pyrazolo[3,4-d]pyrimidin-1-yl)-[1,4′-bipiperidine]-1′-carbonyl)piperidin-4-yl)propyl)piperidin-1-yl)-2-(2,6-dioxopiperidin-3-yl)isoindoline-1,3-dione]",–,–,> 10000 nM,1000 to 10000 nM,–,–,–,> 50 nM,> 75%,–,–
"Nc1ncnc2c1c(-c1ccc(Oc3ccccc3)cc1)nn2[C@@H]1CCCN(C2CCN(C(=O)N3CCC(CCCC4CCN(c5ccc6c(c5)CN(C5CCC(=O)NC5=O)C6=O)CC4)CC3)CC2)C1 (stereo partly drawn) [Compound 196, 3-(5-(4-(3-(1-((R)-3-(4-amino-3-(4-phenoxyphenyl)-1H-pyrazolo[3,4-d]pyrimidin-1-yl)-[1,4′-bipiperidine]-1′-carbonyl)piperidin-4-yl)propyl)piperidin-1-yl)-1-oxoisoindolin-2-yl)piperidine-2,6-dione]",–,–,1000 to 10000 nM,1000 to 10000 nM,–,–,–,10 to 50 nM,> 75%,–,–
"Nc1ncnc2c1c(-c1ccc(Oc3ccccc3)cc1)nn2[C@@H]1CCCN(C2CCN(C(=O)N3CCC(CCCN4CCC(c5ccc6c(c5)C(=O)N(C5CCC(=O)NC5=O)C6=O)CC4)CC3)CC2)C1 (stereo partly drawn) [Compound 197, 5-(1-(3-(1-((R)-3-(4-amino-3-(4-phenoxyphenyl)-1H-pyrazolo[3,4-d]pyrimidin-1-yl)-[1,4′-bipiperidine]-1′-carbonyl)piperidin-4-yl)propyl)piperidin-4-yl)-2-(2,6-dioxopiperidin-3-yl)isoindoline-1,3-dione]",–,–,1000 to 10000 nM,> 10000 nM,–,–,–,10 to 50 nM,> 75%,–,–
"Nc1ncnc2c1c(-c1ccc(Oc3ccccc3)cc1)nn2[C@@H]1CCCN(C2CCN(C(=O)N3CCC(CCCN4CCC(c5ccc6c(c5)CN(C5CCC(=O)NC5=O)C6=O)CC4)CC3)CC2)C1 (stereo partly drawn) [Compound 198, 3-(5-(1-(3-(1-((R)-3-(4-amino-3-(4-phenoxyphenyl)-1H-pyrazolo[3,4-d]pyrimidin-1-yl)-[1,4′-bipiperidine]-1′-carbonyl)piperidin-4-yl)propyl)piperidin-4-yl)-1-oxoisoindolin-2-yl)piperidine-2,6-dione]",–,–,1000 to 10000 nM,1000 to 10000 nM,–,–,–,10 to 50 nM,> 75%,–,–
"Nc1ncnc2c1c(-c1ccc(Oc3ccccc3)cc1)nn2C1CCN(CC2CCN(CC3CCN(c4ccc5c(c4)C(=O)N(C4CCC(=O)NC4=O)C5=O)CC3)CC2)CC1 (stereo not drawn) [Compound 199, 5-(4-((4-((4-(4-amino-3-(4-phenoxyphenyl)-1H-pyrazolo(3,4-d)pyrimidin-1-yl)piperidin-1-yl)methyl)piperidin-1-yl)methyl)piperidin-1-yl)-2-(2,6-dioxopiperidin-3-yl)isoindoline-1,3-dione]",–,–,< 1000 nM,1000 to 10000 nM,–,–,–,10 to 50 nM,> 90%,–,–
"Nc1ncnc2c1c(-c1ccc(Oc3ccccc3)cc1)nn2C1CCN(CC2CCN(CC3CCN(c4ccc5c(c4)CN(C4CCC(=O)NC4=O)C5=O)CC3)CC2)CC1 (stereo not drawn) [Compound 200, 3-(5-(4-((4-((4-(4-amino-3-(4-phenoxyphenyl)-1H-pyrazolo(3,4-d)pyrimidin-1-yl)piperidin-1-yl)methyl)piperidin-1-yl)methyl)piperidin-1-yl)-1-oxoisoindolin-2-yl)piperidine-2,6-dione]",–,–,–,1000 to 10000 nM,–,–,–,> 50 nM,< 50%,dose-dependent degradation,1000 to 10000 nM
"Nc1ncnc2c1c(-c1ccc(Oc3ccccc3)cc1)nn2C1CCN(CC2CCN(CCC3CCN(c4ccc5c(c4)C(=O)N(C4CCC(=O)NC4=O)C5=O)CC3)CC2)CC1 (stereo not drawn) [Compound 201, 5-(4-(2-(4-((4-(4-amino-3-(4-phenoxyphenyl)-1H-pyrazolo[3,4-d]pyrimidin-1-yl)piperidin-1-yl)methyl)piperidin-1-yl)ethyl)piperidin-1-yl)-2-(2,6-dioxopiperidin-3-yl)isoindoline-1,3-dione]",–,–,1000 to 10000 nM,1000 to 10000 nM,–,–,–,10 to 50 nM,> 90%,–,–
"Nc1ncnc2c1c(-c1ccc(Oc3ccccc3)cc1)nn2C1CCN(CC2CCN(CCC3CCN(c4ccc5c(c4)CN(C4CCC(=O)NC4=O)C5=O)CC3)CC2)CC1 (stereo not drawn) [Compound 202, 3-(5-(4-(2-(4-((4-(4-amino-3-(4-phenoxyphenyl)-1H-pyrazolo[3,4-d]pyrimidin-1-yl)piperidin-1-yl)methyl)piperidin-1-yl)ethyl)piperidin-1-yl)-1-oxoisoindolin-2-yl)piperidine-2,6-dione]",–,–,1000 to 10000 nM,< 1000 nM,–,–,–,10 to 50 nM,> 90%,–,–
"Nc1ncnc2c1c(-c1ccc(Oc3ccccc3)cc1)nn2C1CCN(CC2CCN(CCN3CCN(c4ccc5c(c4)C(=O)N(C4CCC(=O)NC4=O)C5=O)CC3)CC2)CC1 (stereo not drawn) [Compound 203, 5-(4-(2-(4-((4-(4-amino-3-(4-phenoxyphenyl)-1H-pyrazolo[3,4-d]pyrimidin-1-yl)piperidin-1-yl)methyl)piperidin-1-yl)ethyl)piperazin-1-yl)-2-(2,6-dioxopiperidin-3-yl)isoindoline-1,3-dione]",–,–,1000 to 10000 nM,1000 to 10000 nM,–,–,–,10 to 50 nM,> 90%,–,–

# — US12139492B2 (Endotarget Inc., priority 2021, dated 2024)
